These results are taken from US7897340B2, “Use of tumor susceptibilty gene 101 (TSG 101) as a prognostic and diagnostic marker” (The Board of Regents of the University of Texas System, priority 2006, dated 2011).

Molecules are shown by their SMILES.

One test relates to p14ARF. The following applies: T29H cells.
The test system of the next test is TSG101. As to the kind of experiment: TSG101 protein levels by immunoblotting in T29H cells. In kind it is cell-based, human. The following applies: inhibitor pretreatment 24 hrs (FTI-277 10 μM, U0126 20 μM, LY294002 10 μM). From the text: Antigen-antibody complexes were detected by enhanced chemiluminescence (Pierce).
The test system of the next test is TSG101 mRNA. The experiment in a line: TSG101 mRNA levels by semi-quantitative PCR in T29 and T29H cells. The following applies: FTI-277 10 μM 24 hours. It is filed as cell-based, human. The protocol:
Total RNA was isolated from cells using Trizol reagent (Invitrogen), and concentration was determined by absorbance at 260 nm. Real-Time PCR analysis was carried out using fluorescent TSG101 primers on an Applied Biosystems Prism 7000 Sequence Detection System. RT-PCR was carried out for TSG101 and HIF-1α using 1 μg of isolated total RNA under the following parameters: 94° C. 1 min, 57° C. 1 min and 72° C. 1.5 min, 35 cycles. Primers used for RT-PCR were TSG10 forward [NT] ID NO: 1), reverse [NT] ID NO: 2), CITED2 forward [NT] ID NO: 3), reverse [NT] ID NO: 4), HIF-1a ? forward [NT] ID NO: 5), reverse [NT] ID NO: 6). […] This up-regulation was further confirmed by immunoblotting analysis of equal amount of independent total protein lysates from pooled T29 and […] cells using an antibody specific to TSG101 (FIG. 1C). To check if the apparent increase in TSG101 protein was due to the transcriptional regulation of the TSG101 gene, the levels of TSG101 mRNA in T29 and […] cells were examined by semiquantitive (FIG. 1D) and real-time PCRs (FIG. 1E). […] Furthermore, the levels of TSG101 mRNA were not affected by FTI-277, a farnesyl transferase inhibitor that blocks the activation of RAS (FIG. 1D).

For a further test, the system named is RAS-GTP. The following applies: T29H cells, data not shown.

Description for RAS-GTP: SKOV-3 and T29H cells grown to 50% confluence in 10 cm plates were infected with H1 and H2 retroviral supernatants generated from Phoenix viral packaging cells. Following infection, cells were selected for 10 days in 0.7 mg/ml of G418 to establish stable cell lines. Raf-GTP binding assays and western blotting using anti-HRAS (1:2000, Santa Cruz) were used to measure the expression and activation levels of RAS proteins in these siRNA cell lines.
Description for p14ARF: Protein concentrations of cell lysates were assayed with the Bio-Rad protein assay reagent. Equal amounts of protein were loaded onto 12% SDS polyacrylamide mini-gels (Bio-Rad) or 10% Tricine-SDS gels and transferred to PVDF membranes. PVDF blots and the remaining polyacrylamide gels were stained with Ponceau S and Coomassie Blue, respectively, to ensure equal loading and even transfer of the samples. After being blocked overnight in 5% milk in TBS-Tween, blots were incubated with corresponding primary antibodies for 1.5 hrs, followed by HRP-conjugated secondary antibody (1:4000, Bio-Rad) for 45 min. Antigen-antibody complexes were detected by enhanced chemiluminescence (Pierce).

For `N#CC(=C(/N)Sc1ccccc1N)/C(C#N)=C(\N)Sc1ccccc1N` [U0126], the “cellular level of p14ARF” value in the test on p14ARF was “suppressed”. In the test on TSG101, the TSG101 protein levels result is “significantly decreased”.
Take `COC(=O)[C@H](CCSC)NC(=O)c1ccc(NC[C@@H](N)CS)cc1-c1ccccc1` [FTI-277]: in the test on TSG101 mRNA, the “levels of TSG101 mRNA” value is “not affected”. Moreover, the RAS-GTP levels result in the test on RAS-GTP is given as “significantly inhibited”. Further, the TSG101 protein levels result with TSG101 is recorded as “significant decrease”.
